Measurements published in patent publication US20230312562A1, “TETRAHYDRO-3H-PYRAZOLO QUINOLONE AND TETRAHYDRO-3H-PYRROLO[3,2-F]QUINOLINE -CONTAINING COMPOUNDS AND USES THEREOF” (Purdue Research Foundation, priority 2020, published 2023).
Marks after values point to notes of the source that are not given here.

Experiments:
MDA-MB-231 = assay: Inhibition of MDA-MB-231 viability/growth at 1 μM, 72 h; format: cell-based; conditions: Homo sapiens, MDA-MB-231; 1 μM compound, 72 h incubation
MDA-MB-435 = assay: NCI-60 sulforhodamine B assay, MDA-MB-435; format: cell-based; conditions: MDA-MB-435, melanoma, 48 h; for GI50: Homo sapiens
Procedure: (§1) Compounds HSD1787, 22, 23 and 27 were sent to the National Cancer Institute (NCI), Bethesda, Maryland (Drug Evaluation Branch), to evaluate the effects of compounds on the NCI-60 cell panel. According to the NCI protocol, the compounds were evaluated at five concentrations (10-fold dilutions) with the highest concentration being 100 μM and the incubation period was 48 h. A sulforhodamine B assay was used to assay the effects of the compounds on the cancer cells. […] The most sensitive cell lines (total growth inhibition, TGI, could be achieved with concentrations less than 1 μM of some of the compounds) were MDA-MB-435 (melanoma), SF-539 (glioma), A498 (renal), MDA-MB-468 (breast), OVCAR-3 (ovarian), NCI-H522 (non-small cell lung cancer). On the other hand, UACC-257 and SK-MEL-28 (both melanoma), TK-10 (renal), OVCAR-4 (ovarian) and T-47D (breast) were resistant to the compounds as 10 μM could not cause total growth inhibition (Table 2). […] This is in line with current appreciation that tumor mutational burden and not necessarily the anatomical origin of the tumor determines treatment strategies or outcomes.
(§2) According to the National Cancer Institute, Bethesda, Maryland (the protocol of the Drug Evaluation Branch), the effects of compounds are measured as follows: Cell suspensions are diluted to a target cell density of 5000-40,000 cells per well (based on cell growth characteristics) in a 96-well microtiter plates. The test compounds were evaluated at five concentrations (10-fold dilutions) with the highest concentration being 100 μM. The incubation period was 48 h under 5% carbon dioxide atmosphere and 100% humidity. A sulforhodamine B assay was used to assay the cells. Optical densities of the wells were read by a plate reader the optical densities were processed into GI50 (the concentration that causes 50% growth inhibition).
(§3) The NCI renamed the IC50 value, the concentration of compound that causes 50% growth inhibition, as follows:
(§4) The control is the well not treated with test agent (https://dtp.cancer.gov/databases_tools/docs/compare/compare_methodology.htm).

K-562 = assay: NCI-60 sulforhodamine B assay, K-562; format: cell-based; conditions: Homo sapiens, K562; K-562, leukemia, 48 h
Procedure: as §1, §2, §3, §4

SF-539 = assay: NCI-60 sulforhodamine B assay, SF-539; format: cell-based; conditions: SF-539, CNS, 48 h; for GI50: Homo sapiens
Procedure: as §1, §2, §3, §4

MCF7 = assay: NCI-60 sulforhodamine B assay, MCF7; format: cell-based; conditions: MCF7, breast, 48 h; for GI50: Homo sapiens
Procedure: as §1, §2, §3, §4

A498 = assay: NCI-60 sulforhodamine B assay, A498; format: cell-based; conditions: A498, renal, 48 h; for GI50: Homo sapiens
Procedure: as §1, §2, §3, §4

MDA-MB-468 = assay: NCI-60 sulforhodamine B assay, MDA-MB-468; format: cell-based; conditions: MDA-MB-468, breast, 48 h; for GI50: Homo sapiens
Procedure: as §1, §2, §3, §4

SR = assay: NCI-60 sulforhodamine B assay, SR; format: cell-based; conditions: Homo sapiens, lymphoma, 48 h
Procedure: as §1, §2, §3, §4

SF-295 = assay: NCI-60 sulforhodamine B assay, SF-295; format: cell-based; conditions: SF-295, CNS, 48 h; for GI50: Homo sapiens
Procedure: as §1, §2, §3, §4

Ovcar-3 = assay: NCI-60 sulforhodamine B assay, Ovcar-3; format: cell-based; conditions: Ovcar-3, ovarian, 48 h; for GI50: Homo sapiens
Procedure: as §1, §2, §3, §4

NCI-H522 = assay: NCI-60 sulforhodamine B assay, NCI-H522; format: cell-based; conditions: NCI-H522, non-small cell lung, 48 h; for GI50: Homo sapiens
Procedure: as §1, §2, §3, §4

Ovcar-8 = assay: NCI-60 sulforhodamine B assay, Ovcar-8; format: cell-based; conditions: Homo sapiens; Ovcar-8, ovarian, 48 h
Procedure: as §1, §2, §3, §4

NCI/ADR-RES = assay: NCI-60 sulforhodamine B assay, NCI/ADR-RES; format: cell-based; conditions: ovarian, 48 h; for GI50: Homo sapiens
Procedure: as §1, §2, §3, §4

UACC-257 = assay: NCI-60 sulforhodamine B assay, UACC-257; format: cell-based; conditions: Homo sapiens; UACC-257, melanoma, 48 h
Procedure: as §1, §2, §3, §4

TK-10 = assay: NCI-60 sulforhodamine B assay, TK-10; format: cell-based; conditions: Homo sapiens; TK-10, renal, 48 h
Procedure: as §1, §2, §3, §4

Ovcar-4 = assay: NCI-60 sulforhodamine B assay, Ovcar-4; format: cell-based; conditions: Homo sapiens; Ovcar-4, ovarian, 48 h
Procedure: as §1, §2, §3, §4

SK-MEL-28 = assay: NCI-60 sulforhodamine B assay, SK-MEL-28; format: cell-based; conditions: Homo sapiens; SK-MEL-28, melanoma, 48 h
Procedure: as §1, §2, §3, §4

T-47D = assay: NCI-60 sulforhodamine B assay, T-47D; format: cell-based; conditions: Homo sapiens, T47D, breast, 48 h
Procedure: as §1, §2, §3, §4

tubulin = assay: Inhibition of tubulin polymerization; format: biochemical; conditions: at 10 μM; similar to inhibition by colchicine
NCI60 cell lines = assay: NCI-60 cell panel, summary statements; format: cell-based; conditions: melanoma, renal, breast, ovarian and leukemia cancer cell lines; read-out: GI50 values as low as
Procedure: as §1, §2, §3, §4

Row | Compound | inhibition at 1 µM (MDA-MB-231) [%] | GI50 (MDA-MB-435) [µM] | GI50 (K-562) [µM] | GI50 (SF-539) [µM] | TGI (total growth inhibition) (SF-539) | GI50 (MCF7) [µM] | TGI (total growth inhibition) (A498) | GI50 (A498) [µM] | GI50 (MDA-MB-468) [µM] | GI50 (SR) [µM] | GI50 (SF-295) [µM] | GI50 (Ovcar-3) [µM] | GI50 (NCI-H522) [µM] | TGI (total growth inhibition) (NCI-H522) | GI50 (Ovcar-8) [µM] | GI50 (NCI/ADR-RES) [µM] | TGI (total growth inhibition) (NCI/ADR-RES) [µM] | GI50 (UACC-257) [µM] | GI50 (TK-10) [µM] | GI50 (Ovcar-4) [µM] | other results
1 | Nc1n[nH]c2ccc([C@@H]3Nc4ccc5[nH]ncc5c4[C@H]4C5CC[C@@H](C5)[C@@H]34)cc12 (stereo in doubt) [HSD1787, 5-(6,7,7a,8,9,10,11,11a-Octahydro-3H-8,11-methanopyrazolo[4,3-a]phenanthridin-7-yl)-1H-indazol-3-amine] | 95 | 0.124 | 0.264 | 0.232 | 0.654 µM | 0.375 | 0.646 µM | 0.179 | 0.269 | 0.233 | 0.34 | 0.243 | 0.21 | 0.868 µM | 0.479 | 0.48 | > 10 | > 10 | 3.86 | 2.14 | TGI (total growth inhibition) (MDA-MB-435): 0.329 µM; TGI (total growth inhibition) (MDA-MB-468): 2.73 µM; TGI (total growth inhibition) (Ovcar-3): 0.634 µM; GI50 (SK-MEL-28): 0.934 µM; GI50 (T-47D): > 10 µM; Inhibition of the polymerization of tubulin (tubulin): inhibited the polymerization of tubulin
2 | Nc1n[nH]c2cc(F)c([C@@H]3Nc4c(F)cc5[nH]ncc5c4[C@H]4[C@@H]5CC[C@@H](C5)[C@H]43)cc12 (stereo in doubt) [Compound 23, 6-Fluoro-5-(5-fluoro-6,7,7a,8,9,10,11,11a-octahydro-3H-8,11-methanopyrazolo[4,3-a]phenanthridin-7-yl)-1H-indazol-3-amine] |  | 0.0846 | 0.11 | 0.0852 | 0.270 µM | 0.131 | 0.2 µM | 0.069 | 0.0865 | 0.131 | 0.0915 | 0.103 | 0.105 | 6.60 µM | 0.142 | 0.15 | 5.81 | 5.66 | 5.72 | 1.17 | TGI (total growth inhibition) (MDA-MB-435): 0.231 µM; TGI (total growth inhibition) (MCF7): 8.33 µM; TGI (total growth inhibition) (SF-295): 3.99 µM; TGI (total growth inhibition) (Ovcar-3): 4.10 µM; GI50 (SK-MEL-28): 3.68 µM; GI50 (T-47D): > 10 µM; GI50 (NCI60 cell lines): ≥ 0.03 µM
3 | Nc1n[nH]c2cc(F)c([C@@H]3Nc4ccc5[nH]ncc5c4[C@H]4[C@@H]5CC[C@@H](C5)[C@H]43)cc12 (stereo in doubt) [Compound 27, 6-Fluoro-5-(6,7,7a,8,9,10,11,11a-octahydro-3H-8,11-methanopyrazolo[4,3-a]phenanthridin-7-yl)-1H-indazol-3-amine] | ~100 | 0.0943 | 0.0922 | 0.114 | 0.304^d μM | 0.137 | 0.280^d μM | 0.0714 | 0.133 | 0.0598 | 0.139 | 0.138 | 0.109 | 0.544^d μM | 0.194 | 0.177 | 1.21 | 2.7 | 2.02 | 0.416 | TGI (total growth inhibition) (MDA-MB-435): 0.283^d μM; TGI (total growth inhibition) (MCF7): 8.44 µM; TGI (total growth inhibition) (MDA-MB-468): 0.424^d μM; TGI (total growth inhibition) (SF-295): 5.77 µM; GI50 (SK-MEL-28): 0.352 µM; GI50 (T-47D): > 10 µM; GI50 (NCI60 cell lines): ≥ 0.03 µM
4 | Nc1n[nH]c2ccc([C@@H]3Nc4c(F)cc5[nH]ncc5c4[C@H]4[C@@H]5CC[C@@H](C5)[C@H]43)cc12 (stereo in doubt) [Compound 22, 5-(5-fluoro-6,7,7a,8,9,10,11,11a-octahydro-3H-8,11-methanopyrazolo[4,3-a]phenanthridin-7-yl)-1H-indazol-3-amine] | 79 | 0.0348 | 0.0477 | 0.167 | 0.590 µM | 0.0616 | 0.636 µM | 0.0722 | 0.0788 | 0.0877 | 0.05 | 0.22 | 0.115 | 1.92 µM | 0.448 | 0.198 | 0.921 | 5.01 | 10.7 | 3.34 | TGI (total growth inhibition) (MDA-MB-468): 0.468 µM; TGI (total growth inhibition) (Ovcar-3): 0.806 µM; GI50 (SK-MEL-28): 1.4 µM; GI50 (T-47D): > 10 µM; GI50 (NCI60 cell lines): ≥ 0.03 µM
5 | Cn1cc([C@@H]2Nc3ccc4[nH]ncc4c3[C@H]3[C@@H]4CC[C@@H](C4)[C@H]32)c(C(F)(F)F)n1 (stereo in doubt) [Compound 5, 7-(1-Methyl-3-(trifluoromethyl)-1H-pyrazol-4-yl)-6,7,7a,8,9,10,11,11a-octahydro-3H-8,11-methanopyrazolo[4,3-a]phenanthridine] | 70 |  |  |  |  |  |  |  |  |  |  |  |  |  |  |  |  |  |  |  | 
